Results published in US20030055046A1, “Novel pyrido cyclohexenyl phenyl carboxamides tocolytic oxytocin receptor antagonists” (Wyeth, priority 2001, published 2003).
Structures can show the parent of a compound that is named as a salt.

Target: T1, human vasopressin V2 receptor subtype (Homo sapiens, UniProt P30518)
T1 construct: host or cells: CHO cells, stably transfected (pZeoSV vector)
Assay: Vasopressin binding in CHO cell membranes expressing human vasopressin V2 subtype receptors
Settings: 100 nM, [3H]arginine vasopressin
Description: Vasopressin Binding in Chinese Hamster Ovary Cell Membranes Expressing Human Vasopressin V2 Subtype Receptors
Chinese Hamster Ovary (CHO) cells stably transfected with the human V2 subtype receptors were obtained from M. Thibonnier, Case Western Reserve University School of Medicine, Cleveland, Ohio.
A. Passaging and Amplification of Cells:
CHO cells transfected with the human vasopressin V2 subtype receptors obtained from M. Thibonnier (pZeoSV vector) are allowed to grow to confluency (approx. >90%) in T-150 flasks under sterile conditions, in a cell culture medium consisting of F-12 Nutrient Mixture (HAM) with L-glutamine (Gibco Cat.# 11765-054) containing 15 mM HEPES (Gibco Cat.# 15630-080), 1% antibiotic/antimycotic (add 5 mL 100×, Gibco Cat.# 15240-062 per 500 mL F-12), 250 μg/mL Zeocin (add 1.25 mL of 100 mg/mL Invitrogen R-250-01 per 500 mL F-12) and 10% Fetal Bovine Serum (Qualified, heat inactivated, Gibco Cat.# 16140-063). The medium is removed by aspiration and the cells washed with 10 mL of Hank's Balanced Salt solution (Gibco Cat.# 14175-095). The salt solution is removed by aspiration and the cells trypsinized with 5 mL of trypsin-EDTA (0.05% trypsin, 0.53 mM EDTA-4Na, Gibco Cat.# 25300-070) for 1 min. The trypsin is removed by aspiration and the cells dislodged by tapping. Cell Culture medium (e.g. 30 mL for 1:30 split) is immediately added and mixed well to inactivate trypsin. 1 mL of detached cells is added to new culture flasks containing fresh Cell Culture medium (e.g. into 25 mL per T-150 flask), and mixed gently. The cells are incubated at 37° C. in 5% CO2. The medium is changed at 3 to 4 day interval (or as appropriate). The cells grow to confluency (approx. >75%-95%) within 7-8 days. All steps are done under sterile conditions.
The cells are washed twice gently with Hank's Balanced Salt solution (e.g. use 10 mL per T-150 flask). The excess solution is removed and the cells bathed for 15-30 min. in an enzyme-free Cell Dissociation Buffer (e.g. use 8 mL Hank's Based, Gibco Cat.# 13150-016 per T-150 flask) until cells are loosened. The contents are transferred to centrifuge tubes (50 mL) kept in an ice bath. All subsequent steps are done at 4° C. The tubes are centrifuged at 300×g for 15 min (1380 rpm on SORVAL, Model RT6000D, using the rotor for 50 mL tubes). The supernatant is discarded and the cells suspended in homogeneizing buffer(10 mM Tris-HCl containing 0.25 M sucrose and 1 mM EDTA, pH 7.4) ensuring that the volume of the buffer is about ten times the volume of the cell pellet. The cells are pooled into a centrifuge tube (50 mL) and homogenized with Polytron at setting 6 for 10 sec. The homogenate is transferred into a Potter-Elvjehm homogeneizer and homogenized with 3 strokes. The homogenate is centrifuged at 1500×g for 60 min at 4° C. (3100 rpm using SORVAL, model RT6000D, using the rotor for 50 mL tubes). The pellet is discarded. The supernatant is centrifuged at 100,000×g for 60 min. at 4° C. (Beckman L8-80M ultracentrifuge; spin at 37,500 rpm with rotor type 70 Ti for 50 mL tubes; 38,000 rpm with type 80Ti for 15 mL tubes; or 35,800 rpm with rotor type 45Ti). The supernatant is discarded and the pellet suspended in 3 to 4 mL of Tris buffer (50 mM TRIS-HCl, pH 7.4). The protein content is estimated by the Bradford or Lowry method. The volume of the membrane suspension is adjusted with the membrane buffer (50 mM Tris-HCl containing 0.1% BSA and 0.1 mM PMSF) to give 3.0 mg/mL (or as appropriate) of protein. The membranes are aliquoted and stored at −70° C.
C. Radioligand Binding Assay:
In wells of a 96-well format microtiter plate, is added 90, 110 or 130 μL (to make up a final volume of 200 μL) of assay buffer containing 50 mM of Tris-HCl (pH 7.4), […], 1 mg % aprotinin, 1 mg % leupeptin, 2 mg % 1,10-phenanthroline, 10 mg % trypsin inhibitor, and 0.1 mM PMSF. The inhibitors are added on the day of the experiment. […]

T1 sequence (P30518 whole entry): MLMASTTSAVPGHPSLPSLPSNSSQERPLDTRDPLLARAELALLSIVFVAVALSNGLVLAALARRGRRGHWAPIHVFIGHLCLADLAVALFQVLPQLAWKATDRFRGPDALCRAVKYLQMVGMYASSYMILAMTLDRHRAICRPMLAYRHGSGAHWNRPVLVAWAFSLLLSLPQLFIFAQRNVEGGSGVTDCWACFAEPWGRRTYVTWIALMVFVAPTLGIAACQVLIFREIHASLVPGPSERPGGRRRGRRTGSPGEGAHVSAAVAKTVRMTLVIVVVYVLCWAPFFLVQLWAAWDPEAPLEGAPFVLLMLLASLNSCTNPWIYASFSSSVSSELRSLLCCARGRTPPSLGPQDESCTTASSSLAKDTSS

Row | SMILES | V2 % inhibition @ 100 nM
1 | Cc1cc(C(=O)N2Cc3ccc(C(=O)N(C)CCc4ccncc4)n3Cc3ccccc32)ccc1C1=CCCCC1 [Example 13, 10-[4-(1-Cyclohex-1-en-1-yl)-3-methylbenzoyl]-N-methyl-N-[2-(4-pyridinyl)ethyl]-10,11-dihydro-5H-pyrrolo[2,1-c][1,4]benzodiazepine-3-carboxamide] | 12%
2 | Cc1cc(C(=O)N2Cc3ccc(C(=O)NCc4ccccn4)n3Cc3ccccc32)ccc1C1=CCCCC1 [Example 5, 10-[4-(1-Cyclohex-1-en-1-yl)-3-methylbenzoyl]-N-(2-pyridinylmethyl)-10,11-dihydro-5H-pyrrolo[2,1-c][1,4]benzodiazepine-3-carboxamide] | 12%
3 | Cc1cc(C(=O)N2Cc3ccc(C(=O)N4CCN(c5ccncc5)CC4)n3Cc3ccccc32)ccc1C1=CCCCC1 [Example 12, {10-[4-(1-Cyclohex-1-en-1-yl)-3-methylbenzoyl]-10,11-dihydro-5H-pyrrolo[2,1--c][1,4]benzodiazepin-3-yl}[4-(4-pyridinyl)-1-piperazinyl]methanone] | 21%
4 | CC1=C(c2ccc(C(=O)N3Cc4ccc(C(=O)N(C)Cc5cccnc5)n4Cc4ccccc43)cc2C)CCC[C@H]1O [Example 3, 10-[4-((3R)-3-Hydroxy-2-methyl-cyclohex-1-en-1-yl)-3-methyl-benzoyl]-10,11-dihydro-5H-pyrrolo[2,1-c][1,4]benzodiazepine-3-carboxylic acid methyl-pyridin-3-yl methyl-amide] | 7%
5 | CC1=C(c2ccc(C(=O)N3Cc4ccc(C(=O)N(C)Cc5cccnc5)n4Cc4ccccc43)cc2C)CCC[C@H]1O.O=C(O)C(O)C(O)C(=O)O [Example 4, 10-[4-((3R)-3-Hydroxy-2-methyl-cyclohex-1-en-1-yl)-3-methyl-benzoyl]-10,11-dihydro-5H-pyrrolo[2,1-c][1,4]benzodiazepine-3-carboxylic acid methyl-pyridin-3-yl methyl-amide L-(+)-tartaric acid salt] | 20%
6 | Cc1cc(C(=O)N2Cc3ccc(C(=O)NCCc4ccccn4)n3Cc3ccccc32)ccc1C1=CCCCC1 [Example 7, 10-[4-(1-Cyclohex-1-en-1-yl)-3-methylbenzoyl]-N-[2-(2-pyridinyl)ethyl]-10,11-pyrrolo[2,1-c][1,4]benzodiazepine-3-carboxamide] | 6%
7 | Cc1cc(C(=O)N2Cc3ccc(C(=O)N4CCN(c5ccccn5)CC4)n3Cc3ccccc32)ccc1C1=CCCCC1 [Example 9, {10-[4-(1-Cyclohex-1-en-1-yl)-3-methylbenzoyl]-10,11-dihydro-5H-pyrrolo[2,1-c][1,4]benzodiazepin-3-yl}[4-(2-pyridinyl)-1-piperazinyl]methanone] | 21%
8 | Cc1cc(C(=O)N2Cc3ccc(C(=O)NCc4cccnc4)n3Cc3ccccc32)ccc1C1=CCCCC1 [Example 6, 10-[4-(1-Cyclohex-1-en-1-yl)-3-methylbenzoyl]-N-(3-pyridinylmethyl)-10,11-dihydro-5H-pyrrolo[2,1-c][1 ,4]benzodiazepine-3-carboxamide] | 3%
9 | Cc1cc(C(=O)N2Cc3ccc(C(=O)NCc4ccncc4)n3Cc3ccccc32)ccc1C1=CCCCC1 [Example 10, 10-[4-(1-Cyclohex-1-en-1-yl)-3-methylbenzoyl]-N-(4-pyridinylmethyl)-10,11-dihydro-5H-pyrrolo[2,1-c][1,4]benzodiazepine-3-carboxamide] | 15%
10 | Cc1cc(C(=O)N2Cc3ccc(C(=O)N(C)CCc4ccccn4)n3Cc3ccccc32)ccc1C1=CCCCC1 [Example 8, 10-[4-(1-Cyclohex-1-en-1-yl)-3-methylbenzoyl]-N-methyl-N-[2-(2-pyridinyl)ethyl]-10,11-dihydro-5H-pyrrolo[2,1-c][1 ,4]benzodiazepine-3-carboxamide] | 16%
11 | Cc1cc(C(=O)N2Cc3ccc(C(=O)N(C)Cc4cccnc4)n3Cc3ccccc32)ccc1C1=CCCCC1 [Example 11, 10-[4-(1-Cyclohex-1-en-1-yl)-3-methylbenzoyl]-N-methyl-N-(3-pyridinylmethyl)-10,11-dihydro-5H-pyrrolo[2,1-c][1,4]benzodiazepine-3-carboxamide] | 17%

Same assay, conditions: [3H]arginine vasopressin, value in parentheses

Row | SMILES | IC50
12 | COc1cc(C2=CCCCC2)c(Cl)cc1C(=O)N1Cc2ccc(C(=O)N(C)Cc3cccnc3)n2Cc2ccccc21 [Example 1, 10-(5-Chloro-4-cyclohex-1-en-1-yl-2-me3thoxybenzoyl)-N-methyl-N-(pyridin-3-ylmethyl)-10,11-dihydro-5H-pyrrolo [2,1-c][1,4]benzodiazepine-3-carboxamide] | 1190 nM
13 | COc1cc(C2=CCCCC2)c(Cl)cc1C(=O)N1Cc2ccc(C(=O)N(C)Cc3cccnc3)n2Cc2ccccc21 [Example 2, 10-(5-Chloro-4-cyclohex-1-en-1-yl-2-methoxybenzoyl)-N-methyl-N-(pyridin-3-ylmethyl)-10,11-dihydro-5H-pyrrolo[2,1-c][1,4]benzodiazepine-3-carboxamide L-(+)-tartaric acid salt hemihydrate] | 1420 nM
